Measured values taken from the NIST ThermoML archive (doi:10.1021/je060271a).
Several values for one entry are separate records, joined by “and”; a condition that tells them apart may be missing. Equal entries are not always repeated.

Conditions: Liquid, Vibrating tube method

CCCCCC(=O)OCC(COC(=O)CCCCC)(COC(=O)CCCCC)COC(=O)CCCCC [pentaerythritol tetrahexanoate]
Conditions	mass density
323.15 K, 11949 kPa	980.8 kg/m3
323.15 K, 11977 kPa	980.8 kg/m3
323.15 K, 12000 kPa	980.8 kg/m3
323.15 K, 12028 kPa	980.8 kg/m3
323.15 K, 12051 kPa	980.9 kg/m3
323.15 K, 12077 kPa	980.9 kg/m3
323.15 K, 12104 kPa	981 kg/m3
323.15 K, 12127 kPa	980.9 kg/m3
323.15 K, 12155 kPa	980.9 kg/m3
323.15 K, 12178 kPa	981 kg/m3
323.15 K, 12205 kPa	981 kg/m3
323.15 K, 12233 kPa	980.9 kg/m3
323.15 K, 12257 kPa	981 kg/m3
323.15 K, 12285 kPa	981.1 kg/m3
323.15 K, 12310 kPa	981.2 kg/m3
323.15 K, 12338 kPa	981.1 kg/m3
323.15 K, 12362 kPa	981.2 kg/m3
323.15 K, 12390 kPa	981.1 kg/m3
323.15 K, 12414 kPa	981 kg/m3
323.15 K, 12442 kPa	981.2 kg/m3
323.15 K, 12471 kPa	981.2 kg/m3
323.15 K, 12494 kPa	981.2 kg/m3
323.15 K, 12523 kPa	981.3 kg/m3
323.15 K, 12547 kPa	981.4 kg/m3
323.15 K, 12576 kPa	981.2 kg/m3
323.15 K, 12605 kPa	981.4 kg/m3
323.15 K, 12630 kPa	981.2 kg/m3
323.15 K, 12927 kPa	981.5 kg/m3
323.15 K, 12950 kPa	981.5 kg/m3
323.15 K, 12980 kPa	981.6 kg/m3
323.15 K, 13006 kPa	981.6 kg/m3
323.15 K, 13029 kPa	981.6 kg/m3
323.15 K, 13186 kPa	981.7 kg/m3
323.15 K, 13214 kPa	981.6 kg/m3
323.15 K, 13237 kPa	981.6 kg/m3
323.15 K, 13264 kPa	981.8 kg/m3
323.15 K, 13292 kPa	981.7 kg/m3
323.15 K, 13315 kPa	981.8 kg/m3
323.15 K, 13345 kPa	981.8 kg/m3
323.15 K, 13368 kPa	981.9 kg/m3
323.15 K, 13396 kPa	981.8 kg/m3
323.15 K, 13420 kPa	981.8 kg/m3
323.15 K, 13891 kPa	982.1 kg/m3
323.15 K, 13918 kPa	982.1 kg/m3
323.15 K, 13941 kPa	982.1 kg/m3
323.15 K, 13969 kPa	982.2 kg/m3
323.15 K, 13992 kPa	982.2 kg/m3
323.15 K, 14020 kPa	982.3 kg/m3
323.15 K, 14514 kPa	982.5 kg/m3
323.15 K, 14565 kPa	982.6 kg/m3
323.15 K, 14593 kPa	982.6 kg/m3
323.15 K, 14621 kPa	982.6 kg/m3
323.15 K, 14645 kPa	982.6 kg/m3
323.15 K, 14674 kPa	982.6 kg/m3
323.15 K, 14698 kPa	982.5 kg/m3
323.15 K, 14726 kPa	982.7 kg/m3
323.15 K, 14750 kPa	982.7 kg/m3
323.15 K, 14778 kPa	982.8 kg/m3
323.15 K, 14807 kPa	982.7 kg/m3
323.15 K, 14831 kPa	982.8 kg/m3
323.15 K, 15257 kPa	983 kg/m3
323.15 K, 15281 kPa	983.1 kg/m3
323.15 K, 15309 kPa	983.1 kg/m3
323.15 K, 15339 kPa	983 kg/m3
323.15 K, 15364 kPa	983.2 kg/m3
323.15 K, 15393 kPa	983.1 kg/m3
323.15 K, 15417 kPa	983.1 kg/m3
323.15 K, 20896 kPa	986.7 kg/m3
323.15 K, 22666 kPa	987.8 kg/m3
323.15 K, 28442 kPa	991.1 kg/m3
323.15 K, 28670 kPa	991.3 kg/m3
323.15 K, 28695 kPa	991.4 kg/m3
323.15 K, 28724 kPa	991.4 kg/m3
323.15 K, 28754 kPa	991.4 kg/m3
323.15 K, 28783 kPa	991.4 kg/m3
323.15 K, 28808 kPa	991.4 kg/m3
323.15 K, 28838 kPa	991.4 kg/m3
323.15 K, 28867 kPa	991.4 kg/m3
323.15 K, 28897 kPa	991.6 kg/m3
323.15 K, 28927 kPa	991.5 kg/m3
323.15 K, 28957 kPa	991.6 kg/m3
323.15 K, 28982 kPa	991.5 kg/m3
323.15 K, 29012 kPa	991.5 kg/m3
323.15 K, 29044 kPa	991.5 kg/m3
323.15 K, 29070 kPa	991.5 kg/m3
323.15 K, 29101 kPa	991.7 kg/m3
323.15 K, 29132 kPa	991.7 kg/m3
323.15 K, 29158 kPa	991.6 kg/m3
323.15 K, 29554 kPa	991.8 kg/m3
323.15 K, 29577 kPa	991.9 kg/m3
323.15 K, 29762 kPa	992 kg/m3
323.15 K, 29785 kPa	992 kg/m3
323.15 K, 29812 kPa	992 kg/m3
323.15 K, 29839 kPa	992.1 kg/m3
323.15 K, 29866 kPa	992.2 kg/m3
323.15 K, 29893 kPa	992.1 kg/m3
323.15 K, 29921 kPa	992 kg/m3
323.15 K, 29944 kPa	992 kg/m3
323.15 K, 29972 kPa	992.2 kg/m3
323.15 K, 30466 kPa	992.5 kg/m3
323.15 K, 30496 kPa	992.4 kg/m3
323.15 K, 30520 kPa	992.4 kg/m3
323.15 K, 30549 kPa	992.5 kg/m3
323.15 K, 31454 kPa	992.9 kg/m3
323.15 K, 31474 kPa	992.9 kg/m3
323.15 K, 31495 kPa	993 kg/m3
323.15 K, 31516 kPa	993 kg/m3
323.15 K, 31533 kPa	993 kg/m3
323.15 K, 31653 kPa	993.1 kg/m3
323.15 K, 31674 kPa	993.2 kg/m3
323.15 K, 31695 kPa	993.2 kg/m3
323.15 K, 31717 kPa	993.1 kg/m3
323.15 K, 31734 kPa	993.2 kg/m3
323.15 K, 31755 kPa	993.1 kg/m3
323.15 K, 32384 kPa	993.6 kg/m3 and 993.5 kg/m3
323.15 K, 32385 kPa	993.5 kg/m3
323.15 K, 32386 kPa	993.5 kg/m3
323.15 K, 32387 kPa	993.6 kg/m3
323.16 K, 578.8 kPa	973 kg/m3
323.16 K, 580.8 kPa	973.2 kg/m3
323.16 K, 582.6 kPa	973.1 kg/m3
323.16 K, 584.7 kPa	973 kg/m3
323.16 K, 586.6 kPa	973 kg/m3
323.16 K, 588.7 kPa	973 kg/m3
323.16 K, 590.7 kPa	973.3 kg/m3
323.16 K, 714.1 kPa	973.2 kg/m3
323.16 K, 716.9 kPa	973.2 kg/m3
323.16 K, 718.8 kPa	973.3 kg/m3
323.16 K, 721.8 kPa	973.3 kg/m3
323.16 K, 724 kPa	973.2 kg/m3
323.16 K, 727.1 kPa	973.1 kg/m3
323.16 K, 729.4 kPa	973.2 kg/m3
323.16 K, 732.2 kPa	973.2 kg/m3
323.16 K, 735.1 kPa	973.1 kg/m3
323.16 K, 737.9 kPa	973.2 kg/m3
323.16 K, 1019.3 kPa	973.3 kg/m3
323.16 K, 1022.8 kPa	973.4 kg/m3
323.16 K, 1026.6 kPa	973.4 kg/m3
323.16 K, 1030.3 kPa	973.5 kg/m3
323.16 K, 1034.3 kPa	973.3 kg/m3
323.16 K, 1037.9 kPa	973.5 kg/m3
323.16 K, 1042.3 kPa	973.3 kg/m3
323.16 K, 1045.6 kPa	973.4 kg/m3
323.16 K, 1049.9 kPa	973.4 kg/m3
323.16 K, 1053.7 kPa	973.4 kg/m3
